Measurements taken from US6313104A, “Organoprotective solutions” (Abbott Laboratories, priority 1999, dated 2001).
“Also recorded” adds a separate entry of the source.

Tests used:
MHC class I [1] = assay: IFN-γ-induced MHC class I expression on PTEC, flow cytometry; type: cell-based
Procedure: (§1) Proximal tubular epithelial cells were cultured according to the methods described by Detrisac et al. (25). In short: PTEC were grown on tissue culture flasks that had been coated with collagen I (Sigma St. Louis Mo.) and Foetel Calf Serum (FCS, from Gibco BRL). The culture medium consisted of Dulbeco's eagle's medium and Ham's medium (both from Gibco BRL) in a 1:1 ratio, supplemented with insulin ([…]), transferrin (5 μg/ml), selenium (5 ng/ml), hydrocortisone (36 ng/ml), triiodothyronine (4 pg/ml) epidermal growth factor (10 ng/ml), and penicillin/streptomycin (5 IE/ml, 5 μg/ml) (all from Sigma). The cell lines were acquired from multiple sources including biopsy tissue pretransplant, allografts unsuitable for transplantation and from grossly normal surgical nephrectomy specimens. Experiments were performed using cells from passages one to four. PTEC were characterized by positive staining for the epithelial membrane antigen (EMA, Dako Glostrup Denmark) and the adenosinedeaminase binding protein (kindly provided by Dr. Dinjens, University Hospital Maastricht, the Netherlands).
(§2) Confluent monolayers of PTEC or HUVEC were trypsinized and seeded in 24-well plates. Upon confluency the cells were stimulated with IFN-γ (Sigma, St. Louis Mo.) for […] in the presence or absence various concentrations of heparinoids in various Heparin (Heparin-Braun®) was purchased from Braun Melsungen (Melsungen, Germany), low molecular weight heparin (Fragmin® P) from Pfrimmer Kabi (Erlangen, Germany), and modified low molecular weight heparins (Knoll AG Ludwigshafen, Germany).
(§3) In some experiments the culture medium was supplemented with sodium chlorate in order to inhibit sulfation of cellbound HSPG. Chlorate was used in concentrations between 50 to 150 mM for 24 hours before addition of IFN-γ and was present during the stimulation period. Sodium chloride was used as osmolarity control. Cultured cells were recovered by brief treatment with trypsin-EDTA for flow cytometry analysis.
(§4) Cells were pooled, divided into two tubes and washed. Isotype matched irrelevant antibodies conjugated to RPE and FITC (from Dako, Glostrup, Denmark) and Cy-5 (from Dianowa, Hamburg, Germany) were added to the first tube which was used as negative control for the FACS settings. Cells from the second tube were labelled with antibodies against MHC class I (RPE-conjugated, W6, 32, Dako), MHC class II (Cy-5-conjugated, CR3/43, Dianova) and ICAM 1 (FITC-conjugated, Dianova) in concentrations according to the instructions of the manufacturer. After incubation for 30 min at 4° C. the cells were washed and analysed by flow cytometry (FACScan, Becton Dickinson); a minimum of 10000 event were analysed. The results are expressed as mean fluorescence intensity (MFI).

MHC class II [2] = assay: IFN-γ-induced MHC class II expression on PTEC, flow cytometry; type: cell-based
Procedure: as §1, §2, §3, §4

ICAM-1 [3] = assay: IFN-γ-induced ICAM-1 expression on PTEC, flow cytometry; type: cell-based
Procedure: as §1, §2, §3, §4

MHC class I [4] = assay: IFN-γ-induced MHC class I expression on HUVEC, flow cytometry; type: cell-based, Human; conditions: for upregulation of MHC class I by IFN-γ: HUVEC, 72 hours
Procedure: (§5) Human umbilical vein endothelial cells were prepared from fresh umbilical cord using the methods described by Jaffe et al (26). Briefly, endothelial cells were isolated from umbilical veins by digestion with collagenase V (Sigma, St. Louis Mo.) for 20 minutes at 37° C. Thereafter the vein was flushes with sterile medium to collect endothelial cells. The culture medium consisted of Medium 199 (Gibco BRL) supplemented with 1% FCS, Endothelial Cell Growth Factor and antibiotics (penicillin-streptomycin). The cells were cultured in 25 cm^2 flasks that had been coated with 1% gelatine (Sigma, St. Louis Mo.).
(§6) All experiments were performed with cells from passage three to six. HUVEC were characterized on the basis of positive staining for factor VIII-related antigen (Dako, High Wycombe, UK) and the endothelial marker EN4 (CD31).
as §2, §4

MHC class II [5] = assay: IFN-γ-induced MHC class II expression on HUVEC, flow cytometry; type: cell-based, Human; conditions: for induction of MHC class II by IFN-γ: HUVEC, 72 hours
Procedure: as §5, §6, §2, §4

ICAM-1 [6] = assay: IFN-γ-induced ICAM-1 expression on HUVEC, flow cytometry; type: cell-based, Human; conditions: for upregulation of ICAM-1 by IFN-γ: HUVEC, 72 hours
Procedure: as §5, §6, §2, §4

^125 I-IFN-γ = assay: Dotblot analysis: binding of 125I-IFN-γ to GAG on nitrocellulose; conditions: 1 μl of 1 mg/ml on nitrocellulose, 1 hour at 4° C.
Procedure: Small strips of nitrocellulose membranes were prepared and 1 μl of heparin, fragmin and the carious GAGS (all in a concentration of 1 mg/ml) were applied onto the strip. After air drying, the strips were fixed in 1% glutaraldehyde +0.5% cetylpyridinium chloride to prevent GAG loss and washed in Tris buffer. The non-occupied protein binding sites were blocked with 5% BSA in PBS for 30 min at 37° C. The strips were subsequently incubated with ^125 I IFN-γ for 1 hour at 4° C. in the presence or absence of heparin. Hereafter the strips were extensively washed with Tris buffer and exposed to a Kodak film.

[7] = PTEC, 150 mM NaClO3 from one day before and during stimulation, IFN-γ 0 to 10 ng/ml, 72 hours
[8] = 10 ng/ml IFN-γ, test substance 3 mg/ml
[9] = 100 ng/ml IFN-γ, heparin 0.03 to 3 mg/ml
[10] = PTEC, 10 ng/ml IFN-γ, 72 hours, test substance 0.03 mg/ml
[11] = PTEC, 10 ng/ml IFN-γ, 72 hours, test substance 3 mg/ml
[12] = 50 ng/ml of IFN-γ, 72 hours, no GAG

With [Na+].[O-][Cl+2]([O-])[O-] [NaClO3, sodium chlorate] the “modulation of MHC class I expression by IFN-γ in comparison to NaCl treated cultures” value (MHC class I [1]; [7]) was “significantly reduced”, the “modulation of MHC class II expression by IFN-γ in comparison to NaCl treated cultures” value (MHC class II [2]; [7]) was “significantly reduced” and the “modulation of ICAM-1 expression by IFN-γ in comparison to NaCl treated cultures” value (ICAM-1 [3]; [7]) was “significantly reduced”.

With heparin the “upregulation of MHC class I by IFN-γ” value (MHC class I [4]; [8]) was “able to inhibit”, the “upregulation of MHC class I by IFN-γ” value (MHC class I [4]; [9]) was “completely abolished” and the “MHC class I expression in the absence of IFN-γ” value (MHC class I [4]; unstimulated HUVEC) was “no influence”. The “induction of MHC class II by IFN-γ” value (MHC class II [5]; [8]) was “able to inhibit”, the “induction of MHC class II by IFN-γ” value (MHC class II [5]; [9]) was “able to inhibit” and the “MHC class II expression in the absence of IFN-γ” value (MHC class II [5]; unstimulated HUVEC) was “no influence”. For the same molecule, the “upregulation of ICAM-1 by IFN-γ” value (ICAM-1 [6]; [8]) was “able to inhibit”, the “upregulation of ICAM-1 by IFN-γ” value (ICAM-1 [6]; [9]) was “completely abolished” and the “ICAM-1 expression in the absence of IFN-γ” value (ICAM-1 [6]; unstimulated HUVEC) was “no influence”. The “MHC class I expression after IFN-γ stimulation” value (MHC class I [1]; [10]) was “did not significantly inhibit”, the “upregulation of MHC class I by IFN-γ” value (MHC class I [1]; [11]) was “only a marginal influence; also recorded: able to inhibit” and the “upregulation of MHC class I by IFN-γ” value (MHC class I [1]; PTEC, 100 ng/ml IFN-γ) was “not influenced”. The “MHC class II expression after IFN-γ stimulation” value (MHC class II [2]; [10]) was “did not significantly inhibit”, the “induction of MHC class II by IFN-γ” value (MHC class II [2]; [11]) was “able to inhibit” and the “induction of MHC class II by IFN-γ” value (MHC class II [2]; PTEC, 100 ng/ml IFN-γ) was “able to inhibit”. The “upregulation of ICAM-1 by IFN-γ” value (ICAM-1 [3]; [10]) was “significantly inhibited”, the “upregulation of ICAM-1 by IFN-γ” value (ICAM-1 [3]; [11]) was “able to inhibit” and the “upregulation of ICAM-1 by IFN-γ” value (ICAM-1 [3]; PTEC, 100 ng/ml IFN-γ) was “able to inhibit”. For the same molecule, the “binding of 125I-IFN-γ with coincubation of a 3000 fold excess of fluidphase heparin” value (^125 I-IFN-γ) was “strongly reduced” and the “binding of 125I-IFN-γ” value (^125 I-IFN-γ; absence of fluidphase heparin) was “can bind”.

For “IFN-γ: IFN-γ (Sigma), stimulus for MHC and ICAM-1 expression”, the “MHC class I expression on PTEC” value (MHC class I [1]; [12]) was “upregulated”, the “MHC class II expression on PTEC” value (MHC class II [2]; [12]) was “induced” and the “ICAM-1 expression on PTEC” value (ICAM-1 [3]; [12]) was “upregulated”.
